From US4242261A, “Production of methylene-cycloamines” (A. H. Robins Company, Inc., priority 1979, dated 1980) come the findings set out here.

The assay concerns Tetrabenazine-Induced Ptosis. The experiment in a line: Blockade of Tetrabenazine-Induced Ptosis in Mice (antidepressant activity). Format: in vivo, mice (ICR-DUB strain). As to conditions: female mice; for ED50: Mus musculus. Here is the method:
Thirty minutes later the presence or absence of complete eyelid closure (ptosis) is assessed in each animal. For compounds which produced blockage of ptosis in all animals, and ED50 value is obtained using a minimum of three geometrically spaced dosages with five mice/dose.

[1] abbreviates: IP, 30 min before tetrabenazine 32 mg/kg IP, test compounds in text, read-out: ED50 (confidence limits).
[2] abbreviates: ip, read-out: ED50 (95% confidence limits), IP, 30 min before tetrabenazine 32 mg/kg IP, Table 1 reference agents, probit analysis.

Several values for one entry are separate records, joined by “and”; a condition that tells them apart may be missing. Equal values may be shown once. Read-outs that look alike come from different tables or passages of the source.

Turning to `CC(C)N1CC(=C(c2ccccc2)c2ccccc2)C1.O=C(O)C(=O)O` [1-isopropyl-3-diphenylmethyleneazetidine oxalate], the ED50 under setting [1] came to 2.18 mg/kg.

Consider `CN1CC(=C(c2ccccc2)c2ccccc2)C1` [1-methyl-3-diphenylmethyleneazetidine], for which the ED50 under setting [1] turned out to be 1.48 mg/kg. Regarding `CN(C)CCCN1c2ccccc2CCc2ccccc21` [imipramine], for the setting “IP, 30 min before tetrabenazine 32 mg/kg IP, Table 1 reference agents, probit analysis”, the “ED50 (95% confidence limits)” value was 0.4 (0.2-0.9) mg/kg and 0.5 (0.2-1.2) mg/kg. Also, under setting [2], the ED50 was 0.3 mg/kg. For `CCOc1ccccc1OCC1CNCCO1` (centres unmarked) [viloxazine], the ED50 under setting [2] was 1.5 mg/kg.
